Experimental findings from US20260356819A1, “OXOISOINDOLINYL-SUBSTITUTED […] DERIVATIVE AND USE THEREOF” (GLUETACS THERAPEUTICS (SHANGHAI) CO., LTD., priority 2023, published 2026) are described below.

Type in all cases: cell-based
Common to all, as to settings: compounds at 50 nM and 500 nM

The target in one assay is T1, IKZF3 (Homo sapiens, UniProt Q96SW2+Q9UKT9).
T1 construct: The supernatant was aspirated as the extracted total cell protein; endogenous in cells; host or cells: human peripheral blood mononuclear cells (hPBMCs)
T1 sequence (Q9UKT9 whole entry): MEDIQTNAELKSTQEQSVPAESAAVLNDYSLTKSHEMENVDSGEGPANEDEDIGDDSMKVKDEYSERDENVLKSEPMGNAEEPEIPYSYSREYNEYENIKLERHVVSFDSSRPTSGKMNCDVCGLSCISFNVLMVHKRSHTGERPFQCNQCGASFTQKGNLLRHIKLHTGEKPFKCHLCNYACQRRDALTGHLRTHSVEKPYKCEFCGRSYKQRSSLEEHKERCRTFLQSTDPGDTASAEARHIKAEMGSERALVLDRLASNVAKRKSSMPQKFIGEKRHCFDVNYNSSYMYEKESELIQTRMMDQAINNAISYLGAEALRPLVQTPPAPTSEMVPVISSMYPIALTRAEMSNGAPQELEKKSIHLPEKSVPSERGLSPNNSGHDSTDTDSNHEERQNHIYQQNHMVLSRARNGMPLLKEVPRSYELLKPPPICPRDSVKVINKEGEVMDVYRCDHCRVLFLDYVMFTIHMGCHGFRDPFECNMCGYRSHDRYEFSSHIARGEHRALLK
T1 sequence (Q96SW2 whole entry): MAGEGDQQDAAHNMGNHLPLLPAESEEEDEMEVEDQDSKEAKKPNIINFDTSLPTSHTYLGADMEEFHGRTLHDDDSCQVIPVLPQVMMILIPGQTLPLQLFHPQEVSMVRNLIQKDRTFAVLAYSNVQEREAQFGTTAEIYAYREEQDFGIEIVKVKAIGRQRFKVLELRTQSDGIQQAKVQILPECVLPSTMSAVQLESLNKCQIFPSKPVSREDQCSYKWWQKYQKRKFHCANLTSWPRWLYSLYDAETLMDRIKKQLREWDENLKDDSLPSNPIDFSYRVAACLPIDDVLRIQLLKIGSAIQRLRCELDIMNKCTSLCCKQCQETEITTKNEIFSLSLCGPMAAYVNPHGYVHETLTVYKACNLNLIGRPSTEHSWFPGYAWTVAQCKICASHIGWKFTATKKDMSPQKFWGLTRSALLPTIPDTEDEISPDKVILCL
T1 sequence (Q16531 whole entry partner): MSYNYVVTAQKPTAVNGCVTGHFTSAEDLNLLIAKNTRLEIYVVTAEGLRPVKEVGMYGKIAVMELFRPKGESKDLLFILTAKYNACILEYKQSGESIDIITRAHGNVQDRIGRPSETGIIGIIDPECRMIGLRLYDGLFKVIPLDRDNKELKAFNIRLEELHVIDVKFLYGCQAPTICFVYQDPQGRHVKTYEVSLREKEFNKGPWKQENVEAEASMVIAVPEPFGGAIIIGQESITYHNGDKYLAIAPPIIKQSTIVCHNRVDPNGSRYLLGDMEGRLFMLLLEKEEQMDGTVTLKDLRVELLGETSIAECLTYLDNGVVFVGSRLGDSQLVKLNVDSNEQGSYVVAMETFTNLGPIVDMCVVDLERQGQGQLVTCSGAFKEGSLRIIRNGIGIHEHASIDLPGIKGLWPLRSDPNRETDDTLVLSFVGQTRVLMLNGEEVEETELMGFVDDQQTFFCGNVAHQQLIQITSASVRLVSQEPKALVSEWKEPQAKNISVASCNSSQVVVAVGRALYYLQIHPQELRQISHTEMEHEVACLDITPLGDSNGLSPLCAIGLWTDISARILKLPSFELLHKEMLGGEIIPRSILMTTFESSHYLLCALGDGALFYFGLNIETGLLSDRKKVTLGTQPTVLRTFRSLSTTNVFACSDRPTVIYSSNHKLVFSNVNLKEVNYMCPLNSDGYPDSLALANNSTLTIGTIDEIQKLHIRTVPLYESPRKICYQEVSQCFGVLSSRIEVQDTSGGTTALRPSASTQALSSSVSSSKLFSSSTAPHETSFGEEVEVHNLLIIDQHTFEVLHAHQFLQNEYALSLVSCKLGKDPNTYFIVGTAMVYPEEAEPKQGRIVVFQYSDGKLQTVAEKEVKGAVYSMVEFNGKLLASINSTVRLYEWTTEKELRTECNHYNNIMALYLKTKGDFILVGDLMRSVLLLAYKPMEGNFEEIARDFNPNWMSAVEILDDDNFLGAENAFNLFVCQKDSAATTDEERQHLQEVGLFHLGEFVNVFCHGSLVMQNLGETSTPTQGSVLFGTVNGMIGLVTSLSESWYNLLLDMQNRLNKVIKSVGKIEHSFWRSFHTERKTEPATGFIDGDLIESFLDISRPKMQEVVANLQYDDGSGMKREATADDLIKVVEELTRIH
Briefly: Western blot degradation of IKZF3 in hPBMCs (24 h). Summed up: (§1)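 PBMC Western blot, 24 h treatment; test levels 50 nM and 500 nM. Band density ÷ internal control, normalised → % remaining; degradation (%) = 1 − remaining.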
Background: Immunoblotting shows a protein as a band on a membrane.

The target in a further assay is T2, IKZF2 (Homo sapiens, UniProt Q96SW2+Q9UKS7).
T2 construct: The supernatant was aspirated as the extracted total cell protein; endogenous in cells; host or cells: human peripheral blood mononuclear cells (hPBMCs)
T2 sequence (Q9UKS7 whole entry): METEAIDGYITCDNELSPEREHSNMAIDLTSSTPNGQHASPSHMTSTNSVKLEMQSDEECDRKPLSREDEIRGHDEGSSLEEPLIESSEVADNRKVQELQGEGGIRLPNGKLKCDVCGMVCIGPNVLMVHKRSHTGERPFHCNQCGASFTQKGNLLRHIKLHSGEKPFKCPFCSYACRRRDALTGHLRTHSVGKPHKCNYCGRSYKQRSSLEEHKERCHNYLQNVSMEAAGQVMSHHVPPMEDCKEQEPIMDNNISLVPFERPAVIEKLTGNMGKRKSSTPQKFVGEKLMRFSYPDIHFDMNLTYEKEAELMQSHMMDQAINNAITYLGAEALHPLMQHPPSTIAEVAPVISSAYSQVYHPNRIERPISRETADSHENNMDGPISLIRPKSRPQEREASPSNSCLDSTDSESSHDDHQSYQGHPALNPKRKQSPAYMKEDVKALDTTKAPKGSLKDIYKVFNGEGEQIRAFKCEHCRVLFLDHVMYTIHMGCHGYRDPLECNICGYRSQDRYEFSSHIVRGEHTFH
T2 sequence (Q96SW2 whole entry): as the sequence (Q96SW2 whole entry) above
T2 sequence (Q16531 whole entry partner): as the sequence (Q16531 whole entry partner) above
The assay is described as follows: Western blot degradation of IKZF2 in hPBMCs (24 h). Summed up:
as §1

The target of the next assay is T3, WEE1 (Homo sapiens, UniProt P30291+Q96SW2).
T3 construct: The supernatant was aspirated as the extracted total cell protein; endogenous in cells; host or cells: human peripheral blood mononuclear cells (hPBMCs)
T3 sequence (P30291 whole entry): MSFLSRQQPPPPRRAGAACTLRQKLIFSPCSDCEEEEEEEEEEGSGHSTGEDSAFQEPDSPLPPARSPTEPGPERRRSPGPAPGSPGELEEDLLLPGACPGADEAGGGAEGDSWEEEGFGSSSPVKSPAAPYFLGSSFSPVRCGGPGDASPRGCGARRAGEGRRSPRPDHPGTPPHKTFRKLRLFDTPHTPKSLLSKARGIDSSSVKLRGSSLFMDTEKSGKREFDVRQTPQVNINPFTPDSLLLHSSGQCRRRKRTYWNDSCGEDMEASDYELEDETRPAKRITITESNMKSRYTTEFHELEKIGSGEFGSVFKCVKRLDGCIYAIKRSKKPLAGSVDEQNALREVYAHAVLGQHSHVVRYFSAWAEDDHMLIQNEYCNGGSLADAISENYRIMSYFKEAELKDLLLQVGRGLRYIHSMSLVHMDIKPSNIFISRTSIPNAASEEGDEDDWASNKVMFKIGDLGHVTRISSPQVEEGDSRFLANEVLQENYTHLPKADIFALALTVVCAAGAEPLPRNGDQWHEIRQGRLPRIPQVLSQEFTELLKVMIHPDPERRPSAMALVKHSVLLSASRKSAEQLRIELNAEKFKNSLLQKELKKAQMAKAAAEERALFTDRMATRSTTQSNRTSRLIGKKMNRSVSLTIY
T3 sequence (Q96SW2 whole entry): as the sequence (Q96SW2 whole entry) above
T3 sequence (Q16531 whole entry partner): as the sequence (Q16531 whole entry partner) above
The assay is described as follows: Western blot degradation of WEE1 in hPBMCs (24 h). Summed up:
as §1

Another assay deals with T4, IKZF1 (Homo sapiens, UniProt Q13422+Q96SW2).
T4 construct: The supernatant was aspirated as the extracted total cell protein; endogenous in cells; host or cells: human peripheral blood mononuclear cells (hPBMCs)
T4 sequence (Q13422 whole entry): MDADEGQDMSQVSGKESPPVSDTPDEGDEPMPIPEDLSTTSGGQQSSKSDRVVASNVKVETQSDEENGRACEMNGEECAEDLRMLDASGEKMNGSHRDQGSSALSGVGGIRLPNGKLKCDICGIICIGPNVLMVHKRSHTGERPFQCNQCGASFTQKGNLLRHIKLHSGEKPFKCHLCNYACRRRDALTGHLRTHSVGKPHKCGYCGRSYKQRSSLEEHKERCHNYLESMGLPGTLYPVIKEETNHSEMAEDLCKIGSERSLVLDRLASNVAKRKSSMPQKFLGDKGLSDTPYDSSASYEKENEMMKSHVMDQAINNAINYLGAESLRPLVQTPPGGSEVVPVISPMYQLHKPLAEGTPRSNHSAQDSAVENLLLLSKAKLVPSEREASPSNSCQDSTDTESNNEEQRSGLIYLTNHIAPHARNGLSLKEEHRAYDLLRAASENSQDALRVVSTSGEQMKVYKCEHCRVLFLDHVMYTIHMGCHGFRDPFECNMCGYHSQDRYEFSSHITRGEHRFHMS
T4 sequence (Q96SW2 whole entry): as the sequence (Q96SW2 whole entry) above
T4 sequence (Q16531 whole entry partner): as the sequence (Q16531 whole entry partner) above
The assay is described as follows: Western blot degradation of IKZF1 in hPBMCs (24 h). Summed up:
as §1

A further assay has as its target T5, GSPT1 (Homo sapiens, UniProt P15170+Q96SW2).
T5 construct: The supernatant was aspirated as the extracted total cell protein; endogenous in cells; host or cells: human peripheral blood mononuclear cells (hPBMCs)
Briefly: Western blot degradation of GSPT1 in hPBMCs (24 h). Summed up: as §1

The next assay has as its target T6, CK1α (Homo sapiens, UniProt P48729+Q96SW2).
T6 construct: The supernatant was aspirated as the extracted total cell protein; endogenous in cells; host or cells: human peripheral blood mononuclear cells (hPBMCs)
Briefly: Western blot degradation of CK1α in hPBMCs (24 h). Summed up:
as §1

T5 sequence (P15170 whole entry): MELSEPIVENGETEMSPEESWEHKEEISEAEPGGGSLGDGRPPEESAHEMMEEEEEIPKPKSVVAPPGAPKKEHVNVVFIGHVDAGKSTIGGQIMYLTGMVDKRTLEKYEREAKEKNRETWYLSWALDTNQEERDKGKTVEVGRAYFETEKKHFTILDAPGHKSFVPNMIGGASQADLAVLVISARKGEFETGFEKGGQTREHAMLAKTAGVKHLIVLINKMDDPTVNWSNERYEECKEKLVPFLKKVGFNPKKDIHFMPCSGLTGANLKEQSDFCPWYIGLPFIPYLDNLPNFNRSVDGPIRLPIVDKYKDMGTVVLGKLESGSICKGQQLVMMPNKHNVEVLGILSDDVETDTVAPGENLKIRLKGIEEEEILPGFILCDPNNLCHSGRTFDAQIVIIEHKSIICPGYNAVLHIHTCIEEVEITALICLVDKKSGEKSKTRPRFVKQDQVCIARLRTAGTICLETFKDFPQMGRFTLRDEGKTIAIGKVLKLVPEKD
T5 sequence (Q96SW2 whole entry): as the sequence (Q96SW2 whole entry) above
T5 sequence (Q16531 whole entry partner): as the sequence (Q16531 whole entry partner) above

On to `O=C1CCN(N2C(=O)c3ccc(CN4CC=C(c5cncc(Cl)c5)CC4)cc3C2=O)C(=O)N1` [GT-07491, 5-((5-chloro-3′,6′-dihydro-[3,4′-bipyridin]-1′ (2′H)-yl)methyl)-2-(2,4-dioxotetrahydropyrimidin-1(2H)-yl)isoindoline-1,3-dione], for which, at IKZF3, the “IKZF3 substrate protein remaining %” value is given as “B (80%< substrate protein remaining % ≤100%)”. For the same compound, the “IKZF2 substrate protein remaining %” value at IKZF2 is recorded as “B (80%< substrate protein remaining % ≤100%)”. In addition, the “WEE1 substrate protein remaining %” value at WEE1 is recorded as “A (0% ≤ substrate protein remaining % ≤80%)”. Further, on IKZF1, the “IKZF1 substrate protein remaining %” value was “B (80%< substrate protein remaining % ≤100%)”. In addition, at GSPT1, the “GSPT1 substrate protein remaining %” value is on record as “A (0% ≤ substrate protein remaining % ≤80%)”. Also, the “CK1α substrate protein remaining %” value at CK1α is given as “B (80%< substrate protein remaining % ≤100%)”.
Consider `O=C1CCN(N2C(=O)c3ccc(CN4CC=C(c5ncccc5F)CC4)cc3C2=O)C(=O)N1` [GT-07492, 2-(2,4-dioxotetrahydropyrimidin-1(2H)-yl)-5-((3-fluoro-3′,6′-dihydro-[2,4′-bipyridin]-1′ (2′H)-yl)methyl)isoindoline-1,3-dione], for which, on IKZF3, the “IKZF3 substrate protein remaining %” value is listed as “B (80%< substrate protein remaining % ≤100%)”. For the same compound, the “IKZF2 substrate protein remaining %” value on IKZF2 was “B (80%< substrate protein remaining % ≤100%)”. Besides, the “WEE1 substrate protein remaining %” value on WEE1 was “B (80%< substrate protein remaining % ≤100%)”. In addition, the “IKZF1 substrate protein remaining %” value at IKZF1 was “B (80%< substrate protein remaining % ≤100%)”. Moreover, at GSPT1, the “GSPT1 substrate protein remaining %” value is on record as “B (80%< substrate protein remaining % ≤100%)”. At CK1α, the “CK1α substrate protein remaining %” value is “A (0% ≤ substrate protein remaining % ≤80%)”.
`O=C1CCN(N2C(=O)c3ccc(CN4CCC(c5ccnc(F)c5F)CC4)cc3C2=O)C(=O)N1` [GT-07493, 5-((4-(2,3-difluoropyridin-4-yl)piperidin-1-yl)methyl)-2-(2,4-dioxotetrahydropyrimidin-1(2H)-yl)isoindoline-1,3-dione]: the “IKZF3 substrate protein remaining %” value at IKZF3 was “A (0% ≤ substrate protein remaining % ≤80%)”. Further, the “IKZF2 substrate protein remaining %” value on IKZF2 was “B (80%< substrate protein remaining % ≤100%)”. Moreover, the “WEE1 substrate protein remaining %” value on WEE1 is recorded as “B (80%< substrate protein remaining % ≤100%)”. Besides, the “IKZF1 substrate protein remaining %” value on IKZF1 was “B (80%< substrate protein remaining % ≤100%)”. Besides, on GSPT1, the “GSPT1 substrate protein remaining %” value was “B (80%< substrate protein remaining % ≤100%)”. Moreover, the “CK1α substrate protein remaining %” value on CK1α is “A (0% ≤ substrate protein remaining % ≤80%)”.
Take `O=C1CCN(N2C(=O)c3ccc(CN4CC=C(c5ccnc(F)c5F)CC4)cc3C2=O)C(=O)N1` [GT-07494, 5-((2′,3′-difluoro-3,6-dihydro-[4,4′-bipyridin]-1(2H)-yl)methyl)-2-(2,4-dioxotetrahydropyrimidin-1(2H)-yl)isoindoline-1,3-dione]: at IKZF3, the “IKZF3 substrate protein remaining %” value is listed as “B (80%< substrate protein remaining % ≤100%)”. The “IKZF2 substrate protein remaining %” value on IKZF2 is “B (80%< substrate protein remaining % ≤100%)”. Also, the “WEE1 substrate protein remaining %” value at WEE1 is reported as “A (0% ≤ substrate protein remaining % ≤80%)”. In addition, the “IKZF1 substrate protein remaining %” value on IKZF1 was “B (80%< substrate protein remaining % ≤100%)”. In addition, the “GSPT1 substrate protein remaining %” value on GSPT1 is recorded as “B (80%< substrate protein remaining % ≤100%)”. For the same compound, the “CK1α substrate protein remaining %” value at CK1α was “A (0% ≤ substrate protein remaining % ≤80%)”.
On to `O=C1CCN(N2Cc3cc(CN4CCC(c5ccon5)CC4)ccc3C2=O)C(=O)N1` [GT-07495, 1-(5-((4-(isoxazol-3-yl)piperidin-1-yl)methyl)-1-oxoisoindolin-2-yl)dihydropyrimidine-2,4(1H,3H)-dione], for which the “IKZF3 substrate protein remaining %” value at IKZF3 was “B (80%< substrate protein remaining % ≤100%)”. Moreover, the “IKZF2 substrate protein remaining %” value on IKZF2 was “B (80%< substrate protein remaining % ≤100%)”. Further, at WEE1, the “WEE1 substrate protein remaining %” value was “B (80%< substrate protein remaining % ≤100%)”. Further, the “IKZF1 substrate protein remaining %” value at IKZF1 is “B (80%< substrate protein remaining % ≤100%)”. The “GSPT1 substrate protein remaining %” value at GSPT1 is listed as “A (0% ≤ substrate protein remaining % ≤80%)”. Also, the “CK1α substrate protein remaining %” value on CK1α is “A (0% ≤ substrate protein remaining % ≤80%)”.
For the compound `O=C1CCN(N2Cc3cc(CN4CCN(c5noc6cc(F)ccc56)CC4)ccc3C2=O)C(=O)N1` [GT-07496, 1-(5-((4-(6-fluorobenzo[d]isoxazol-3-yl)piperazin-1-yl)methyl)-1-oxoisoindolin-2-yl)dihydropyrimidine-2,4(1H,3H)-dione], the “IKZF3 substrate protein remaining %” value at IKZF3 is given as “B (80%< substrate protein remaining % ≤100%)”. For the same compound, at IKZF2, the “IKZF2 substrate protein remaining %” value is given as “B (80%< substrate protein remaining % ≤100%)”. On WEE1, the “WEE1 substrate protein remaining %” value is given as “B (80%< substrate protein remaining % ≤100%)”. The “IKZF1 substrate protein remaining %” value on IKZF1 is on record as “B (80%< substrate protein remaining % ≤100%)”. Besides, at GSPT1, the “GSPT1 substrate protein remaining %” value is “A (0% ≤ substrate protein remaining % ≤80%)”. Also, the “CK1α substrate protein remaining %” value at CK1α is “A (0% ≤ substrate protein remaining % ≤80%)”.
For `O=C1CCN(N2Cc3cc(CN4CCN(c5noc6ccncc56)CC4)ccc3C2=O)C(=O)N1` [GT-07497, 1-(5-((4-(isoxazolo[4,5-c]pyridin-3-yl)piperazin-1-yl)methyl)-1-oxoisoindolin-2-yl)dihydropyrimidine-2,4(1H,3H)-dione], on IKZF3, the “IKZF3 substrate protein remaining %” value is “B (80%< substrate protein remaining % ≤100%)”. Also, the “IKZF2 substrate protein remaining %” value at IKZF2 is listed as “A (0% ≤ substrate protein remaining % ≤80%)”. In addition, the “WEE1 substrate protein remaining %” value on WEE1 is on record as “A (0% ≤ substrate protein remaining % ≤80%)”. In addition, the “IKZF1 substrate protein remaining %” value on IKZF1 is “A (0% ≤ substrate protein remaining % ≤80%)”. In addition, the “GSPT1 substrate protein remaining %” value on GSPT1 is “A (0% ≤ substrate protein remaining % ≤80%)”. For the same compound, on CK1α, the “CK1α substrate protein remaining %” value is “A (0% ≤ substrate protein remaining % ≤80%)”.
`O=C1CCN(N2Cc3cc(CN4CCN(c5nsc6cc(F)ccc56)CC4)ccc3C2=O)C(=O)N1` [GT-07500, 1-(5-((4-(6-fluorobenzo[d]isothiazol-3-yl)piperazin-1-yl)methyl)-1-oxoisoindolin-2-yl)dihydropyrimidine-2,4(1H,3H)-dione]: the “IKZF3 substrate protein remaining %” value at IKZF3 is recorded as “B (80%< substrate protein remaining % ≤100%)”. The “IKZF2 substrate protein remaining %” value on IKZF2 is listed as “B (80%< substrate protein remaining % ≤100%)”. Also, the “WEE1 substrate protein remaining %” value at WEE1 was “A (0% ≤ substrate protein remaining % ≤80%)”. The “IKZF1 substrate protein remaining %” value on IKZF1 was “A (0% ≤ substrate protein remaining % ≤80%)”. Besides, the “GSPT1 substrate protein remaining %” value on GSPT1 was “A (0% ≤ substrate protein remaining % ≤80%)”. Besides, the “CK1α substrate protein remaining %” value at CK1α was “A (0% ≤ substrate protein remaining % ≤80%)”.
As for `O=C1CCN(N2Cc3cc(CN4CCN(c5c[nH]c6ncccc56)CC4)ccc3C2=O)C(=O)N1` [GT-07502, 1-(5-((4-(1H-pyrrolo[2,3-b]pyridin-3-yl)piperazin-1-yl)methyl)-1-oxoisoindolin-2-yl)dihydropyrimidine-2,4(1H,3H)-dione], the “IKZF3 substrate protein remaining %” value at IKZF3 was “B (80%< substrate protein remaining % ≤100%)”. Besides, the “IKZF2 substrate protein remaining %” value on IKZF2 is reported as “B (80%< substrate protein remaining % ≤100%)”. Further, the “WEE1 substrate protein remaining %” value at WEE1 was “A (0% ≤ substrate protein remaining % ≤80%)”. At IKZF1, the “IKZF1 substrate protein remaining %” value is on record as “A (0% ≤ substrate protein remaining % ≤80%)”. The “GSPT1 substrate protein remaining %” value on GSPT1 is “A (0% ≤ substrate protein remaining % ≤80%)”. Besides, the “CK1α substrate protein remaining %” value on CK1α is “A (0% ≤ substrate protein remaining % ≤80%)”.
Regarding `O=C1CCN(N2Cc3cc(CN4CCC(n5cnc6cc(F)ccc65)CC4)ccc3C2=O)C(=O)N1` [GT-07503, 1-(5-((4-(5-fluoro-1H-benzo[d]imidazol-1-yl)piperidin-1-yl)methyl)-1-oxoisoindolin-2-yl)dihydropyrimidine-2,4(1H,3H)-dione], at IKZF3, the “IKZF3 substrate protein remaining %” value is listed as “B (80%< substrate protein remaining % ≤100%)”. Further, at IKZF2, the “IKZF2 substrate protein remaining %” value is recorded as “B (80%< substrate protein remaining % ≤100%)”. Moreover, the “WEE1 substrate protein remaining %” value on WEE1 was “A (0% ≤ substrate protein remaining % ≤80%)”. Besides, the “IKZF1 substrate protein remaining %” value at IKZF1 is recorded as “A (0% ≤ substrate protein remaining % ≤80%)”. Also, the “GSPT1 substrate protein remaining %” value on GSPT1 is “A (0% ≤ substrate protein remaining % ≤80%)”. In addition, the “CK1α substrate protein remaining %” value on CK1α is recorded as “A (0% ≤ substrate protein remaining % ≤80%)”.
In the case of `O=C1CCN(N2Cc3cc(CN4CCC(c5n[nH]c6cc(F)ccc56)CC4)ccc3C2=O)C(=O)N1` [GT-07508, 1-(5-((4-(6-fluoro-1H-indazol-3-yl)piperidin-1-yl)methyl)-1-oxoisoindolin-2-yl)dihydropyrimidine-2,4(1H,3H)-dione], the “IKZF3 substrate protein remaining %” value at IKZF3 was “B (80%< substrate protein remaining % ≤100%)”. For the same compound, the “IKZF2 substrate protein remaining %” value at IKZF2 was “A (0% ≤ substrate protein remaining % ≤80%)”. The “WEE1 substrate protein remaining %” value at WEE1 is “A (0% ≤ substrate protein remaining % ≤80%)”. Besides, the “IKZF1 substrate protein remaining %” value on IKZF1 is “A (0% ≤ substrate protein remaining % ≤80%)”. The “GSPT1 substrate protein remaining %” value at GSPT1 was “A (0% ≤ substrate protein remaining % ≤80%)”. Further, the “CK1α substrate protein remaining %” value on CK1α was “A (0% ≤ substrate protein remaining % ≤80%)”.
